Laboratory results as given in US20110152223A1, “THERAPEUTIC AGENT FOR ANCA-RELATED VASCULITIS” (priority 2008, published 2011).

Key:
Assay type in all cases: in vivo
SCG/Kj mice = assay: Action of EPA on the survival rate of SCG/Kj mice as an ANCA model; conditions: SCG/Kj mice fed 5% diet in a free-feeding state from seven weeks old
Source text: SCG/Kj mice (seven weeks old) as a spontaneous ANCA vasculitis/nephritis model (Nippon Kayaku Co., Ltd.) were divided into three groups comprising 6 or 7 animals each, and fed on (1) fish meal-free feed F1 (Funakoshi Co., Ltd.) (control group), (2) 5% corn oil diet (manufactured by Sigma Corporation) (corn oil group), or (3) 5% EPA-E diet (diet F1 with 5% EPA-E added thereto) (EPA group) in a free-feeding state so as to observe the survival rate.

PD-L1 = assay: mRNA expression level of PD-L1 in the kidneys of SCG/Kj mice (quantitative real-time PCR); conditions: 5% EPA-E diet from seven weeks old until completed 11th week of age
Experimental: (§1) SCG/Kj mice (seven weeks old) were divided into three groups comprising 6 or 7 animals each, and fed under the same conditions as Example 1 until they completed their 11th week of age. The mRNA expression levels of PD-1, PD-L1, PD-L2, Foxp3, and CTLA4 in the kidneys, lungs and spleens of the mice were evaluated.
(§2) A frozen kidney was homogenized in a TRIzol® reagent (Invitrogen, Carlsbad, Calif.). Total RNA was prepared from the homogenate, and purified using PureLink Micro-to-Midi Total RNA Purification System (Invitrogen). SuperScript™ III first-strand synthesis system (Invitrogen) was used to prepare cDNA from the purified total RNA, and quantitative real-time PCR was conducted with ABI Prism® 7000 (Applied Biosystems, Foster City, Calif.). For primers and probes for PCR, TaqMan® gene expression assays (Applied Biosystems) were used.

Foxp3 = assay: mRNA expression level of Foxp3 in the kidneys of SCG/Kj mice (quantitative real-time PCR); conditions: 5% EPA-E diet from seven weeks old until completed 11th week of age
Experimental: as §1, §2

PD-1 = assay: mRNA expression level of PD-1 in the kidneys of SCG/Kj mice (quantitative real-time PCR); conditions: 5% EPA-E diet from seven weeks old until completed 11th week of age
Experimental: as §1, §2

PD-L2 = assay: mRNA expression level of PD-L2 in the kidneys of SCG/Kj mice (quantitative real-time PCR); conditions: 5% EPA-E diet from seven weeks old until completed 11th week of age
Experimental: as §1, §2

CTLA4 = assay: mRNA expression level of CTLA4 in the kidneys of SCG/Kj mice (quantitative real-time PCR); conditions: 5% EPA-E diet from seven weeks old until completed 11th week of age
Experimental: as §1, §2

MPO-ANCA = MPO-ANCA in the serum of SCG/Kj mice by ELISA (ANCA production); conditions: 5% EPA-E diet from seven weeks old until completed 11th week of age, absorbance at 405 nm
Experimental: SCG/Kj mice (seven weeks old) were divided into three groups comprising 6 or 7 animals each, and fed under the same conditions as Example 1 until they completed their 11th week of age. Groups of B6 mice (two animals) and of SCG/Kj mice (15 weeks old; three animals) were further provided, and the five groups were subjected to the absorbance measurement for MPO-ANCA in the serum by an ELISA technique.
The MPO-ANCA titer was measured by following a method having already been reported (Ishida-Okawara, A., Ito-Ihara, T., Muso, E. et al., Neutrophil contribution to the crescentic glomerulonephritis in SCG/Kj mice, Nephrol. Dial. Transplant. 2004; 19: 1708-1715). To put it briefly: Recombinant mouse MPO was coated onto an ELISA plate (Toyoshima Co., Tokyo, Japan) at 4° C. overnight. The plate was blocked with 1% bovine serum albumin (BSA) (Sigma), then incubated at room temperature for 1.5 hours in the presence of mouse serum (50-fold dilution).
Bound MPO-ANCA was detected after an incubation for two hours in the presence of an alkaline phosphatase-labeled anti-mouse IgG antibody (Cappel). Subsequently, the secondary antibody as bound was quantified by measuring the absorbance at 405 nm after an incubation in the presence of 1 mg/ml of p-nitrophenyl phosphate (Sigma).

CC/C=C\C/C=C\C/C=C\C/C=C\C/C=C\CCCC(=O)OCC [EPA-E, ethyl icosapentate ester]
age at which the survival rate began to decrease (SCG/Kj mice): about 15 weeks old | survival-prolonging effect (SCG/Kj mice): has a survival-prolonging effect | PD-L1 mRNA expression level in the kidney as compared with the control group (PD-L1): likely to be increased | Foxp3 mRNA expression level in the kidney as compared with the control group (Foxp3): significantly increased | PD-1 mRNA expression level in the kidney as compared with the control group (PD-1): likely to be increased | PD-L2 mRNA expression level in the kidney as compared with the control group (PD-L2): likely to be increased | CTLA4 mRNA expression level in the kidney as compared with the control group (CTLA4): likely to be increased | ANCA levels relative to normal mice (B6) (MPO-ANCA): comparable to those of the normal mice (B6) | ANCA production as compared with the control group and the corn oil group (MPO-ANCA): evidently suppressed
